According to ChEMBL document CHEMBL6120978, “Anticancer activity of salinomycin quaternary phosphonium salts” (Eur J Med Chem, 2025):
pIC50: −log10 of the molar value. Calls of active or inactive are those of the source. No cut-off for these calls is given here.

How the values were obtained:
SW480 = assay: Cytotoxicity against human SW480 cells incubated for 72 hrs by MTT assay; format: functional, cell-based; settings: SW480, 72 h
SW-620 = assay: Cytotoxicity against human SW620 cells incubated for 72 hrs by MTT assay; format: functional, cell-based; settings: SW-620, 72 h
PC-3 = assay: Cytotoxicity against human PC-3 cells incubated for 72 hrs by MTT assay; format: functional, cell-based; settings: PC-3, 72 h
MDA-MB-231 [1] = assay: Cytotoxicity against human MDA-MB-231 cells incubated for 72 hrs by MTT assay; format: functional, cell-based; settings: MDA-MB-231, 72 h
A549 [2] = assay: Cytotoxicity against human A549 cells incubated for 72 hrs by MTT assay; format: functional, cell-based; settings: A549, 72 h
[3] = Selectivity index, ratio of IC50 for cytotoxicity against human HaCaT cells to IC50 for cytotoxicity against human SW620 cells; format: toxicity, cell-based; settings: HaCaT cells versus SW620 cells, read-out: Ratio IC50
[4] = Selectivity index, ratio of IC50 for cytotoxicity against human HaCaT cells to IC50 for cytotoxicity against human PC-3 cells; format: toxicity, cell-based; settings: HaCaT cells versus PC-3 cells, read-out: Ratio IC50
[5] = Selectivity index, ratio of IC50 for cytotoxicity against human HaCaT cells to IC50 for cytotoxicity against human MDA-MB-231 cells; format: toxicity, cell-based; settings: HaCaT cells versus MDA-MB-231 cells, read-out: Ratio IC50
[6] = Selectivity index, ratio of IC50 for cytotoxicity against human HaCaT cells to IC50 for cytotoxicity against human A549 cells; format: toxicity, cell-based; settings: HaCaT cells versus A549 cells, read-out: Ratio IC50
[7] = Selectivity index, ratio of IC50 for cytotoxicity against chinese hamster V79 cells to IC50 for cytotoxicity against human PC-3 cells; format: toxicity, cell-based; settings: V79 cells versus PC-3 cells, read-out: Ratio IC50
A549 [8] = assay: Effect on mitochondrial mass in human A549 cells assessed as fold increase in mean fluorescence intensity at IC50 incubated for 48 hrs by MitoTracker Green FM staining based flow cytometry analysis relative to control; format: functional
MDA-MB-231 [9] = assay: Effect on mitochondrial mass in human MDA-MB-231 cells assessed as fold increase in mean fluorescence intensity at IC50 incubated for 48 hrs by MitoTracker Green FM staining based flow cytometry analysis relative to control; format: functional
A549 [10] = assay: Effect on mitochondrial mass in human A549 cells assessed as increase in MTGreen positive cells at IC50 incubated for 48 hrs by MitoTracker Green FM staining based flow cytometry analysis relative to control; format: functional
A549 [11] = assay: Effect on mitochondrial function in human A549 cells assessed as fold increase in mean fluorescence intensity at IC50 incubated for 48 hrs by MitoTracker Red CMXRos staining based flow cytometry analysis relative to control; format: functional
MDA-MB-231 [12] = assay: Effect on mitochondrial function in human MDA-MB-231 cells assessed as increase in MTRed CMXRos positive cells at IC50 incubated for 48 hrs by MitoTracker Red CMXRos staining based flow cytometry analysis relative to control; format: functional
Mitochondrial membrane = assay: Induction of mitochondrial membrane potential loss in human A549 cells assessed as green fluorescence at IC50 incubated for 48 hrs MitoTracker Green FM staining based flow cytometry analysis (reference value: 8.93 %); format: cell membranes
A549 [13] = assay: Induction of cell cycle arrest in human A549 cells assessed as accumulation of cells at G0/G1 phase at IC50 incubated for 24 hrs by propidium iodide staining based flow cytometry analysis (reference value: 54.3 %); format: functional
A549 [14] = assay: Induction of cell cycle arrest in human A549 cells assessed as accumulation of cells at SubG1 phase at IC50 incubated for 24 hrs by propidium iodide staining based flow cytometry analysis (reference value: 0.71 %); format: functional
A549 [15] = assay: Induction of cell cycle arrest in human A549 cells assessed as accumulation of cells at S phase at IC50 incubated for 24 hrs by propidium iodide staining based flow cytometry analysis (reference value: 21.6 %); format: functional
A549 [16] = assay: Induction of cell cycle arrest in human A549 cells assessed as accumulation of cells at G2 phase at IC50 incubated for 24 hrs by propidium iodide staining based flow cytometry analysis (reference value: 20.8 %); format: functional
MDA-MB-231 [17] = assay: Induction of cell cycle arrest in human […] cells assessed as accumulation of cells at S phase at IC50 incubated for 24 hrs by propidium iodide staining based flow cytometry analysis; format: functional
MDA-MB-231 [18] = assay: Induction of cell cycle arrest in human […] cells assessed as accumulation of cells at G2 phase at IC50 incubated for 24 hrs by propidium iodide staining based flow cytometry analysis; format: functional
A549 [19] = assay: Induction of apoptosis in human A549 cells assessed as viable cells at IC50 incubated for 72 hrs by Annexin V-FITC staining based flow cytometry analysis (reference value: 95.49 %); format: functional
A549 [20] = assay: Induction of apoptosis in human A549 cells assessed as early apoptotic cells at IC50 incubated for 72 hrs by Annexin V-FITC staining based flow cytometry analysis (reference value: 1.68 %); format: functional
A549 [21] = assay: Induction of apoptosis in human A549 cells assessed as late apoptotic cells at IC50 incubated for 72 hrs by Annexin V-FITC staining based flow cytometry analysis (reference value: 1.86 %); format: functional
A549 [22] = assay: Induction of apoptosis in human A549 cells assessed as necrotic cells at IC50 incubated for 72 hrs by Annexin V-FITC staining based flow cytometry analysis (reference value: 0.97 %); format: functional
MDA-MB-231 [23] = assay: Induction of apoptosis in human MDA-MB-231 cells assessed as early apoptotic cells at IC50 incubated for 72 hrs by Annexin V-FITC staining based flow cytometry analysis (reference value: 4.23 %); format: functional
MDA-MB-231 [24] = assay: Induction of apoptosis in human MDA-MB-231 cells assessed as late apoptotic cells at IC50 incubated for 72 hrs by Annexin V-FITC staining based flow cytometry analysis (reference value: 3.07 %); format: functional
MDA-MB-231 [25] = assay: Induction of apoptosis in human MDA-MB-231 cells assessed as necrotic cells at IC50 incubated for 72 hrs by Annexin V-FITC staining based flow cytometry analysis (reference value: 1.17 %); format: functional
MDA-MB-231 [26] = assay: Induction of ROS generation of human MDA-MB-231 cells assessed as fold increase at IC50 incubated for 6 hrs by CellROX Green staining based spectrofluorometer analysis relative to control; format: functional
Staphylococcus aureus [27] = assay: Antimicrobial activity against Staphylococcus aureus NCTC 4163 incubated for 18 hrs by twofold microdilution method; format: functional
Staphylococcus aureus [28] = assay: Antimicrobial activity against Staphylococcus aureus ATCC 25923 incubated for 18 hrs by twofold microdilution method; format: functional
Staphylococcus aureus [29] = assay: Antimicrobial activity against Staphylococcus aureus ATCC 6538 incubated for 18 hrs by twofold microdilution method; format: functional
Staphylococcus aureus [30] = assay: Antimicrobial activity against Staphylococcus aureus ATCC 29213 incubated for 18 hrs by twofold microdilution method; format: functional
[31] = test system: Staphylococcus epidermidis; assay: Antimicrobial activity against Staphylococcus epidermidis ATCC 35984 incubated for 18 hrs by twofold microdilution method; format: functional
Escherichia coli = assay: Antimicrobial activity against Escherichia coli ATCC 25922 incubated for 18 hrs by twofold microdilution method; format: functional
Pseudomonas aeruginosa = assay: Antimicrobial activity against Pseudomonas aeruginosa ATCC 15442 incubated for 18 hrs by twofold microdilution method; format: functional

| Structure (SMILES) | pIC50 (SW480) | pIC50 (SW-620) | pIC50 (PC-3) | pIC50 (MDA-MB-231 [1]) | pIC50 (A549 [2]) | selectivity ratio [3] | selectivity ratio [4] | selectivity ratio [5] | selectivity ratio [6] | selectivity ratio [7] | fold change (FC) (A549 [8]) | fold change (FC) (MDA-MB-231 [9]) | Activity (A549 [10]) | fold change (FC) (A549 [11]) | Activity (MDA-MB-231 [12]) | Activity (Mitochondrial membrane) | Activity (A549 [13]) | Activity (A549 [14]) | Activity (A549 [15]) | Activity (A549 [16]) | other results |
| --- | --- | --- | --- | --- | --- | --- | --- | --- | --- | --- | --- | --- | --- | --- | --- | --- | --- | --- | --- | --- | --- |
| CC[C@@H](C(=O)[C@@H](C)[C@@H](O)[C@H](C)[C@@H]1O[C@@H]([C@@H](CC)C(=O)OCCCC[P+](c2ccccc2)(c2ccccc2)c2ccccc2)CC[C@@H]1C)[C@H]1O[C@]2(C=C[C@@H](O)[C@]3(CC[C@@](C)([C@H]4CC[C@](O)(CC)[C@H](C)O4)O3)O2)[C@H](C)C[C@@H]1C.[Br-] | 6.41 | 6.85 | 5.87 | 6.13 | 6.17 | 8.8 | 0.9 | 1.7 | 1.8 | 0.1 | 6 | 8 | 70% | 3 | 50% | 41.7% | 68.5% | 6% | 13.2% | 12% | Activity (MDA-MB-231 [17]): inactive; Activity (MDA-MB-231 [18]): inactive; Activity (A549 [19]): 31.8%; Activity (A549 [20]): 59.17%; Activity (A549 [21]): 3.9%; Activity (A549 [22]): 2.13%; Activity (MDA-MB-231 [23]): 27.96%; Activity (MDA-MB-231 [24]): 15.32%; Activity (MDA-MB-231 [25]): 5.23%; fold change (FC) (MDA-MB-231 [26]): 2; MIC (Staphylococcus aureus [27]): 2 µg/mL; MIC (Staphylococcus aureus [28]): 2 µg/mL; MIC (Staphylococcus aureus [29]): 1 µg/mL; MIC (Staphylococcus aureus [30]): 1 µg/mL; MIC [31]: 1 µg/mL; MIC (Escherichia coli): 256 µg/mL; MIC (Pseudomonas aeruginosa): 256 µg/mL |
| CCCC[P+](CCCC)(CCCC)CCCCOC(=O)[C@H](CC)[C@H]1CC[C@H](C)[C@H]([C@@H](C)[C@H](O)[C@H](C)C(=O)[C@H](CC)[C@H]2O[C@]3(C=C[C@@H](O)[C@]4(CC[C@@](C)([C@H]5CC[C@](O)(CC)[C@H](C)O5)O4)O3)[C@H](C)C[C@@H]2C)O1.[Br-] | 6.31 | 6.28 | 5.84 | 6.05 | 6.07 | 1.3 | 0.5 | 0.8 | 0.8 | 0.4 | 6 | 8 | 70% | 3 | 90% | 32.5% | Active | Active | Active | Active | Activity (MDA-MB-231 [17]): inactive; Activity (MDA-MB-231 [18]): inactive; Activity (A549 [19]): 19.91%; Activity (A549 [20]): 52.57%; Activity (A549 [21]): 14.59%; Activity (A549 [22]): 12.94%; Activity (MDA-MB-231 [23]): 39.5%; Activity (MDA-MB-231 [24]): 21.8%; Activity (MDA-MB-231 [25]): 5.15%; fold change (FC) (MDA-MB-231 [26]): 2; MIC (Staphylococcus aureus [27]): 2 µg/mL; MIC (Staphylococcus aureus [28]): 2 µg/mL; MIC (Staphylococcus aureus [29]): 2 µg/mL; MIC (Staphylococcus aureus [30]): 2 µg/mL; MIC [31]: 2 µg/mL; MIC (Escherichia coli): > 256 µg/mL; MIC (Pseudomonas aeruginosa): > 256 µg/mL |
